# Assay results reported in ChEMBL document CHEMBL1201862, “PubChem BioAssay data set” (2004).
# The source made the active and inactive calls.
# Legend:
# [1] = target: T1, Heat shock factor protein 1 (Mus musculus, UniProt P38532); test: decrease of HSF1-responsive luciferase luminescence – cell-based, NIH3T3, dose retest, confirmation (AID 2382); type: functional;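 further: NIH3T3 fibroblasts with HSF1-driven luciferase reporter stressed by proteasome inhibitor MG132; luminescence from HSF1-driven luciferase expression after 8 hours of MG132 stress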
# T1 sequence (P38532 whole entry): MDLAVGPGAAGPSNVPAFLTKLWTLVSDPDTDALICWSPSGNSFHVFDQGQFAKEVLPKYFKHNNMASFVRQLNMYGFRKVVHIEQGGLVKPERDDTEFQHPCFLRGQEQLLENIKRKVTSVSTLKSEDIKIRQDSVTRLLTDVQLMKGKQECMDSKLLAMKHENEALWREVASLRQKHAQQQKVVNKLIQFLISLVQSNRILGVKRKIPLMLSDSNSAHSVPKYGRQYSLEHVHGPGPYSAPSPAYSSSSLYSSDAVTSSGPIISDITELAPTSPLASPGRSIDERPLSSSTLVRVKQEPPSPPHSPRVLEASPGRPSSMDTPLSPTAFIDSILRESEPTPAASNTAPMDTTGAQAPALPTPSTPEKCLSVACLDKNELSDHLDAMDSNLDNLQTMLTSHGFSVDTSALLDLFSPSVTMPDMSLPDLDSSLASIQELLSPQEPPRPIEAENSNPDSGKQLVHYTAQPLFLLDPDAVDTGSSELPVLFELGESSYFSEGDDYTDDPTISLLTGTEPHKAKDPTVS
# [2] = Luminescence-based dose response cell-based high throughput screening assay for cytotoxic compounds using the IEC-6 intestinal epithelial cell line. [Related pubchem assays: 1858 (Summary AID.), 1825 (Counterscreen.), 1907 (Confirmation screen.)]; type: functional
# [3] = target: Sphingosine 1-phosphate receptor 4 (Homo sapiens, UniProt O95977); test: Fluorescence dose response cell-based high throughput screening assay for antagonists of the Sphingosine 1-Phosphate Receptor 4 (S1P4). [Related pubchem assays: 1524 (Confirmation in triplicates.), 1510 (Primary screen.)]; type: functional
# Chain of Sphingosine 1-phosphate receptor 4 (O95977 whole entry, the tested form may be a part): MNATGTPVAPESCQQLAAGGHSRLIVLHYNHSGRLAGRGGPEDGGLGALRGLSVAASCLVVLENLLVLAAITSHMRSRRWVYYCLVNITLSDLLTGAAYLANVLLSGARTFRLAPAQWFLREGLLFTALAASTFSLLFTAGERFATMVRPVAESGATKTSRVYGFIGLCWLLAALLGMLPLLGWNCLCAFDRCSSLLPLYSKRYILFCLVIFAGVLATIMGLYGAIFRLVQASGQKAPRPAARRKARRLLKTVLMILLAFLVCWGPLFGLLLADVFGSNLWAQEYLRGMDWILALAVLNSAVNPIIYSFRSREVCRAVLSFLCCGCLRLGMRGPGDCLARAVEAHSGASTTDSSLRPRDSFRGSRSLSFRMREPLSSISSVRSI
# [4] = system: CHO; test: CHO cell viability loss, potency – luminescence, cytotoxicity control for TLR9-MyD88 binding inhibitor project, dose response (AID 588339); type: functional, cell-based, hamster; conditions: Cricetulus griseus;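 further: CHO cells stably coexpressing TLR9 and MyD88 fusions from primary screen; compound exposure lasted 48 hours before viability readout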
# [5] = reduction of Shn3 3'UTR-driven luciferase in osteoblasts – cell-based, Clone20 osteoblasts, firefly luciferase, cherry-picked, dose response (AID 624132); type: functional;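 further: firefly luciferase luminescence from reporter carrying the Shn3 3'UTR in osteoblasts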
# [6] = target: Fatty acid synthase (Homo sapiens, UniProt P49327); test: inhibition of human FAS-TE enzyme activity – biochemical, kinetic fluorescence intensity, dose response (AID 624326); type: functional;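 further: rate of fluorescence rise from hydrolysis of a fluorogenic O-methyl fluorescein ester substrate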
# Chain of Fatty acid synthase (P49327 whole entry): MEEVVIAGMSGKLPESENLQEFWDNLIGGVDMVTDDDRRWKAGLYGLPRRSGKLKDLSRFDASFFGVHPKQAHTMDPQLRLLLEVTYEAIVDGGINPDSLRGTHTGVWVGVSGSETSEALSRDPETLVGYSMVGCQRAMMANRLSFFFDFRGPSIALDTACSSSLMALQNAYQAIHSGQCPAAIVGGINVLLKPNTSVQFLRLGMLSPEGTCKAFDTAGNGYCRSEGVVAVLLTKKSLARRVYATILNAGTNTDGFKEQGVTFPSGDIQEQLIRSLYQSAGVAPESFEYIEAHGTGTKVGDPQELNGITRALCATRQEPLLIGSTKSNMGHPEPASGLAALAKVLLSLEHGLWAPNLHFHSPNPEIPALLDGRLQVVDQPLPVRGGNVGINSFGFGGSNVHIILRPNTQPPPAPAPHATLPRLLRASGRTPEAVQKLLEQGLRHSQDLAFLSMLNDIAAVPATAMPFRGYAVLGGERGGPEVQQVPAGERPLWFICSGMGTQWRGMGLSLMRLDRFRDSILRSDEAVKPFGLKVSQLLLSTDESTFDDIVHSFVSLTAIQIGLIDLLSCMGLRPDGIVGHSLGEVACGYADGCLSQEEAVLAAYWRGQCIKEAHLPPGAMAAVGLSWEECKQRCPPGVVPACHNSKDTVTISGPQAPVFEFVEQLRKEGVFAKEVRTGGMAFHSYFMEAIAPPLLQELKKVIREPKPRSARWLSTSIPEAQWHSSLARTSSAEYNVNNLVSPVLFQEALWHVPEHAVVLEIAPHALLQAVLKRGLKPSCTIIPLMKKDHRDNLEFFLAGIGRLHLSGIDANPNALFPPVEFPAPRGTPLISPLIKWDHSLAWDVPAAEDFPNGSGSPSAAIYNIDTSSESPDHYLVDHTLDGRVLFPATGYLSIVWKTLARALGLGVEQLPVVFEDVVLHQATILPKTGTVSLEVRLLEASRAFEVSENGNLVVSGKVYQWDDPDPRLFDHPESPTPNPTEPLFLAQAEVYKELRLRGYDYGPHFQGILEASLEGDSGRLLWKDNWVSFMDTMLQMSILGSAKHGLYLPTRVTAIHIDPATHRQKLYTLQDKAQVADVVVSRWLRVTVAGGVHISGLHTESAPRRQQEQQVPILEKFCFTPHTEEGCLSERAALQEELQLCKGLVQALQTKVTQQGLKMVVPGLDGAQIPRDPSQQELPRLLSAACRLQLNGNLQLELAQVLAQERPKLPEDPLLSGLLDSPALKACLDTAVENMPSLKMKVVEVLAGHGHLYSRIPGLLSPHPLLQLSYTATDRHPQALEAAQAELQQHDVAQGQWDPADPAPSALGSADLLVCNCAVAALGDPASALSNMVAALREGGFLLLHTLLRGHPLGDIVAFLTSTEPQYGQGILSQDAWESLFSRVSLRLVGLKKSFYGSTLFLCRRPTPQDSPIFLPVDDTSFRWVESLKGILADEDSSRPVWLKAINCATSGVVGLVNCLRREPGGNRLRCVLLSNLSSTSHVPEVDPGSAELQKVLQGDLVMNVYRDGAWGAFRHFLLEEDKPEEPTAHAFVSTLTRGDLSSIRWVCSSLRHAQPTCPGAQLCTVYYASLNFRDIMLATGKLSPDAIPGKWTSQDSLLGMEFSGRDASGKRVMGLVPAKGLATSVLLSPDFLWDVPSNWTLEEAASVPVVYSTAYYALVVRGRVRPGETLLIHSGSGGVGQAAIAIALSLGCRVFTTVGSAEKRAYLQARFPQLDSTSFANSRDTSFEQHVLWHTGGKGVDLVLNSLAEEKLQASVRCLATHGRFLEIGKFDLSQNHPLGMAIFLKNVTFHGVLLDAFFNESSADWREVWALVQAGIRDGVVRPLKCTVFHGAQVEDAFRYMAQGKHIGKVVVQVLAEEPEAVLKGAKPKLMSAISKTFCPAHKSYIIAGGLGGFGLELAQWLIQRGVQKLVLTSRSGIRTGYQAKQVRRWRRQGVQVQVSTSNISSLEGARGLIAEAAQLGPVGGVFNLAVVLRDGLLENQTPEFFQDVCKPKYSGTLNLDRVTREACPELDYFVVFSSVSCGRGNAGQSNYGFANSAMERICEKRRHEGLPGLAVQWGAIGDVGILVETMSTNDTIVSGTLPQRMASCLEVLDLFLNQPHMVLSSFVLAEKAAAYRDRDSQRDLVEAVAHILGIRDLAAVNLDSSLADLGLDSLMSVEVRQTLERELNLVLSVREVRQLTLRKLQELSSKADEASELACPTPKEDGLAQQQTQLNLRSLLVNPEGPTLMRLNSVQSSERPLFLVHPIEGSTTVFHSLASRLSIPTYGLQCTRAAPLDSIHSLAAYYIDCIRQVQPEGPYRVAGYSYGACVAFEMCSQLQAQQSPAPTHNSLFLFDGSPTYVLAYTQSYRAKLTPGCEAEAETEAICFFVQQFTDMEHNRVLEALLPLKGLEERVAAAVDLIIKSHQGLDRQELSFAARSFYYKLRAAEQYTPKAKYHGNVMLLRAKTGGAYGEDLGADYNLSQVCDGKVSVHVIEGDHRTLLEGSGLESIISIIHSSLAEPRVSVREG
# [7] = target: Eukaryotic translation initiation factor 4E (Mus musculus, UniProt P63073); test: blockers of eIF4G binding by eIF4E – biochemical, TR-FRET, dose response (AID 855); type: functional;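 further: potency for disrupting eIF4E binding to eIF4GI seen as loss of FRET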
# Chain of Eukaryotic translation initiation factor 4E (P63073 whole entry, the tested form may be a part): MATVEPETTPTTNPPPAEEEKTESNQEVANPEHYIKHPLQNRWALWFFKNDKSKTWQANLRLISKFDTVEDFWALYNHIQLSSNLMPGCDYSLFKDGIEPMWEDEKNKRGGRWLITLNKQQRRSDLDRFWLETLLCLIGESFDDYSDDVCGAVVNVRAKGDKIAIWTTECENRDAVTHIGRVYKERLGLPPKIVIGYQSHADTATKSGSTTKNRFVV
# [8] = off-target signal loss in HeLa-CEM21 co-culture – HeLa F-luc CTL cells, cherry-picked, counter-screen for HIV-1 Env fusion inhibitor project, dose response (AID 652040); type: functional, cell-based;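 further: potency for signal decrease marking cytotoxic or nonspecific inhibition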
# [9] = target: T2, Serine/threonine-protein phosphatase (Homo sapiens, UniProt Q9BPW0); test: inhibition of protein phosphatase 5 activity – biochemical, fluorescence, dose response (AID 2395)
# T2 sequence (Q9BPW0 whole entry): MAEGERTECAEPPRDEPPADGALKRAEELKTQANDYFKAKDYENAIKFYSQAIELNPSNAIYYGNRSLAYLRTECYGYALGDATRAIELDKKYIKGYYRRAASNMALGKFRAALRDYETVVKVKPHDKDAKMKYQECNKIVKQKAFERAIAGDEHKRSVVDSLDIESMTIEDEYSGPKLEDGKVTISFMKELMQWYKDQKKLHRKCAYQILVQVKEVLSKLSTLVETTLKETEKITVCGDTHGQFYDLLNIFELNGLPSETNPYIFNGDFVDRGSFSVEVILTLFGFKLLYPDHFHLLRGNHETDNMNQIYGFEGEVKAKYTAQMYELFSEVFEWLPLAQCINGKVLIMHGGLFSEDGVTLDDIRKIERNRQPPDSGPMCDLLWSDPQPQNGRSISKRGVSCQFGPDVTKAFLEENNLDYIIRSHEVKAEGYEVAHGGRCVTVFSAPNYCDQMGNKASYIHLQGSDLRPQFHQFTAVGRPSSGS
# [10] = target: T3, Caspase-3 (Homo sapiens, UniProt P42574); type: functional;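 further: Dose-response selectivity test against caspase-3 for candidate inhibitors of sentrin-specific proteases (SENPs)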
# T3 sequence (P42574 whole entry): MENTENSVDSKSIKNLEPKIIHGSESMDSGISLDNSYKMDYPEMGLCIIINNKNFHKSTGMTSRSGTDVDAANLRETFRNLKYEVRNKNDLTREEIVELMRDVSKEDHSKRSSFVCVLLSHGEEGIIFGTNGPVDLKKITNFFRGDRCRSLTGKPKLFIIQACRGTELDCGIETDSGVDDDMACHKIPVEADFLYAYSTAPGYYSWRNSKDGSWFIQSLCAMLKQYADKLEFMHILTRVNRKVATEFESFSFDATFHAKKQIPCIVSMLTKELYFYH
# [11] = target: Tyrosyl-DNA phosphodiesterase 2 (Homo sapiens, UniProt O95551); test: potency against TDP2 phosphodiesterase activity – biochemical, epi absorbance, IC50, dose response (AID 743297)
# Chain of Tyrosyl-DNA phosphodiesterase 2 (O95551 whole entry): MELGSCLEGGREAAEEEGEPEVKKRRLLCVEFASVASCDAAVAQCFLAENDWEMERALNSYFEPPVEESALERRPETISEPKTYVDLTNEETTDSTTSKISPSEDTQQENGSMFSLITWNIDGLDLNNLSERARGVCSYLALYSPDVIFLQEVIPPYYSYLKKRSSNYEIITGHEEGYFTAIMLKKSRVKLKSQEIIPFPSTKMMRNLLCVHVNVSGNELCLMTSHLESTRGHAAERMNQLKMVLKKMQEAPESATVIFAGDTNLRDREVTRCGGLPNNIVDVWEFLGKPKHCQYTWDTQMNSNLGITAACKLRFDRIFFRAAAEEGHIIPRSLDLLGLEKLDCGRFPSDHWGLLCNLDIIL
# [12] = target: Voltage-gated N-type calcium channel alpha-1B subunit/Amyloid beta A4 precursor protein-binding family A member 1 (Homo sapiens, UniProt Q00975+Q02410); type: protein assay
# [13] = target: T4, Mannose-6-phosphate isomerase (Homo sapiens, UniProt P34949); test: MPI inhibition at elevated mannose 6-phosphate – biochemical, fluorescence intensity, high mannose 6-phosphate, primary screen (AID 1220)
# T4 sequence (P34949 whole entry): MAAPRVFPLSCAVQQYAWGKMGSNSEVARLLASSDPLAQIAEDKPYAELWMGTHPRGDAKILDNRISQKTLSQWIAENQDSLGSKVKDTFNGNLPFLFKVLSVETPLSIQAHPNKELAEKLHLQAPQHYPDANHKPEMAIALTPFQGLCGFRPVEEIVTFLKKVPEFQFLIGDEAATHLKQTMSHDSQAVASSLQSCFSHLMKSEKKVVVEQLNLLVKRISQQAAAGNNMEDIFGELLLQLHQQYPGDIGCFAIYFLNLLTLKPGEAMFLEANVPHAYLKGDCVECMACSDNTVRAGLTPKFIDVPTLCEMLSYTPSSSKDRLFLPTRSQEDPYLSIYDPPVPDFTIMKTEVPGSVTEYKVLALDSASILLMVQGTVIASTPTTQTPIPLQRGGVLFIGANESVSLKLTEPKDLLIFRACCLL
compound,measurement,setting,value
O=C(Nc1ccccc1Cl)/C(Cl)=C(\Cl)[S+]([O-])c1ccccc1 (stereo not drawn),EC50,[1],3.56 µM (active)
same,IC50,[2],2.52 µM (active)
same,IC50,[3],0.541 µM (active)
same,IC50,[4],1.18 µM (active)
same,AC50,[5],0.438 µM (active)
same,IC50,[6],3.28 µM (active)
CCCCCCCCCCCCCCCCn1cc[n+](C)c1,IC50,[7],12.9 µM (active)
same,AC50,[8],7.76 µM (active)
O=C(NC1(O)C(=O)c2ccccc2C1=O)c1ccccc1,IC50,[9],> 0.828 µM (active)
same,IC50,[10],69.9 µM (active)
same,IC50,[11],3.27 µM (active)
Cc1cc(C)nc(/N=c2/ssnc2Cl)c1,IC50,[12],> 50 µM (inactive)
same,IC50,[13],28.8 µM (active)
